Organism: Rattus norvegicus
Assay: DrugMatrix - Regimen: Daily Repeat
Assay type: toxicity, organism-based, Sprague-Dawley
Parameters: regimen Daily Repeat, gender Male, age 6-8 weeks
Conditions: in vivo, po, route oral GAVAGE, vehicle 100 % WATER; for ABSOLUTE BASOPHIL / ABSOLUTE EOSINOPHIL / ABSOLUTE LYMPHOCYTE / ABSOLUTE MONOCYTE / ABSOLUTE SEGMENTED NEUTROPHIL / BASOPHIL / EOSINOPHIL / ERYTHROCYTE COUNT / HEMATOCRIT / HEMOGLOBIN / LEUKOCYTE COUNT / LYMPHOCYTE / MEAN CORPUSCULAR HEMOGLOBIN / MEAN CORPUSCULAR HEMOGLOBIN CONCENTRATION / MEAN CORPUSCULAR VOLUME / MONOCYTE / NEUTROPHIL / NUCLEATED RED BLOOD CELLS / PLATELET COUNT: tissue Blood; for ALANINE AMINOTRANSFERASE / ALBUMIN / ALKALINE PHOSPHATASE / ASPARTATE AMINOTRANSFERASE / BLOOD UREA NITROGEN / CARBON DIOXIDE / CHLORIDE / CHOLESTEROL / CREATINE PHOSPHOKINASE / CREATININE / GLUCOSE / LACTATE DEHYDROGENASE / LIPASE / PHOSPHORUS / POTASSIUM / SODIUM / TOTAL BILIRUBIN / TOTAL PROTEIN / URIC ACID: tissue Plasma
[1] = 0 mg/kg, 72 h, dose level Control, time 3 day
[2] = 0 mg/kg, 120 h, dose level Control, time 5 day
[3] = 160 mg/kg, 72 h, dose level Low, time 3 day

## N[C@@H](Cc1ccc(O)c(O)c1)C(=O)O [LEVODOPA]
[1]
  ABSOLUTE BASOPHIL: 0 CELLS/uL
  ABSOLUTE EOSINOPHIL: 86.33 CELLS/uL
  ABSOLUTE LYMPHOCYTE: 12090.17 CELLS/uL
  ABSOLUTE MONOCYTE: 166.67 CELLS/uL
  ABSOLUTE SEGMENTED NEUTROPHIL: 1090.17 CELLS/uL
  BASOPHIL: 0%
  EOSINOPHIL: 0.67%
  ERYTHROCYTE COUNT: 5.57 x10E6/uL
  HEMATOCRIT: 35.33%
  HEMOGLOBIN: 13.83 G/DL
  LEUKOCYTE COUNT: 13.43 x10E3/uL
  LYMPHOCYTE: 89.83%
  MEAN CORPUSCULAR HEMOGLOBIN: 24.88 pg
  MEAN CORPUSCULAR HEMOGLOBIN CONCENTRATION: 39.15 G/DL
  MEAN CORPUSCULAR VOLUME: 63.52 fL
  MONOCYTE: 1.17%
  NEUTROPHIL: 8.33%
  NUCLEATED RED BLOOD CELLS: 0 /100WBC
  PLATELET COUNT: 1181.33 x10E3/uL
  ALANINE AMINOTRANSFERASE: 48.33 u/L
  ALBUMIN: 4.1 G/DL
  ALKALINE PHOSPHATASE: 395 u/L
  ASPARTATE AMINOTRANSFERASE: 81.83 u/L
  BLOOD UREA NITROGEN: 15.83 mg/dL
  CARBON DIOXIDE: 24.17 mmol/L
  CHLORIDE: 103.83 MEQ/L
  CHOLESTEROL: 63.67 mg/dL
  CREATINE PHOSPHOKINASE: 372.83 u/L
  CREATININE: 0.18 mg/dL
  GLUCOSE: 173.83 mg/dL
  LACTATE DEHYDROGENASE: 188.33 u/L
  LIPASE: 9.5 u/L
  PHOSPHORUS: 11.95 mg/dL
  POTASSIUM: 5.99 MEQ/L
  SODIUM: 144.43 MEQ/L
  TOTAL BILIRUBIN: 0.15 mg/dL
  TOTAL PROTEIN: 5.95 G/DL
  URIC ACID: 1.82 mg/dL
[2]
  ABSOLUTE BASOPHIL: 0 CELLS/uL
  ABSOLUTE EOSINOPHIL: 26.67 CELLS/uL
  ABSOLUTE LYMPHOCYTE: 7583.83 CELLS/uL
  ABSOLUTE MONOCYTE: 131.33 CELLS/uL
  ABSOLUTE SEGMENTED NEUTROPHIL: 674.83 CELLS/uL
  BASOPHIL: 0%
  EOSINOPHIL: 0.33%
  ERYTHROCYTE COUNT: 5.78 x10E6/uL
  HEMATOCRIT: 36.48%
  HEMOGLOBIN: 14.03 G/DL
  LEUKOCYTE COUNT: 8.42 x10E3/uL
  LYMPHOCYTE: 89.83%
  MEAN CORPUSCULAR HEMOGLOBIN: 24.3 pg
  MEAN CORPUSCULAR HEMOGLOBIN CONCENTRATION: 38.52 G/DL
  MEAN CORPUSCULAR VOLUME: 63.15 fL
  MONOCYTE: 1.67%
  NEUTROPHIL: 8.17%
  NUCLEATED RED BLOOD CELLS: 0 /100WBC
  PLATELET COUNT: 1186.67 x10E3/uL
  ALANINE AMINOTRANSFERASE: 50.17 u/L
  ALBUMIN: 4.07 G/DL
  ALKALINE PHOSPHATASE: 367.5 u/L
  ASPARTATE AMINOTRANSFERASE: 81.67 u/L
  BLOOD UREA NITROGEN: 16.17 mg/dL
  CARBON DIOXIDE: 32.33 mmol/L
  CHLORIDE: 101.5 MEQ/L
  CHOLESTEROL: 65.33 mg/dL
  CREATINE PHOSPHOKINASE: 255.33 u/L
  CREATININE: 0.17 mg/dL
  GLUCOSE: 139.33 mg/dL
  LACTATE DEHYDROGENASE: 95 u/L
  LIPASE: 10.5 u/L
  PHOSPHORUS: 10.38 mg/dL
  POTASSIUM: 6.11 MEQ/L
  SODIUM: 145.55 MEQ/L
  TOTAL BILIRUBIN: 0.17 mg/dL
  TOTAL PROTEIN: 5.98 G/DL
  URIC ACID: 0.93 mg/dL
[3]
  ABSOLUTE BASOPHIL: 0 CELLS/uL
  ABSOLUTE EOSINOPHIL: 48 CELLS/uL
  ABSOLUTE LYMPHOCYTE: 13173.67 CELLS/uL
  ABSOLUTE MONOCYTE: 48 CELLS/uL
  ABSOLUTE SEGMENTED NEUTROPHIL: 2130.33 CELLS/uL
  BASOPHIL: 0%
  EOSINOPHIL: 0.33%
  ERYTHROCYTE COUNT: 5.35 x10E6/uL
  HEMATOCRIT: 34.57%
  HEMOGLOBIN: 13.5 G/DL
  LEUKOCYTE COUNT: 15.4 x10E3/uL
  LYMPHOCYTE: 85.67%
  MEAN CORPUSCULAR HEMOGLOBIN: 25.23 pg
  MEAN CORPUSCULAR HEMOGLOBIN CONCENTRATION: 39.07 G/DL
  MEAN CORPUSCULAR VOLUME: 64.63 fL
  MONOCYTE: 0.33%
  NEUTROPHIL: 13.67%
  NUCLEATED RED BLOOD CELLS: 0 /100WBC
  PLATELET COUNT: 1267 x10E3/uL
  ALANINE AMINOTRANSFERASE: 43.67 u/L
  ALBUMIN: 4 G/DL
  ALKALINE PHOSPHATASE: 349.67 u/L
  ASPARTATE AMINOTRANSFERASE: 93.67 u/L
  BLOOD UREA NITROGEN: 15.67 mg/dL
  CARBON DIOXIDE: 22 mmol/L
  CHLORIDE: 103.33 MEQ/L
  CHOLESTEROL: 61 mg/dL
  CREATINE PHOSPHOKINASE: 665.33 u/L
  CREATININE: 0.14 mg/dL
  GLUCOSE: 158.33 mg/dL
  LACTATE DEHYDROGENASE: 401 u/L
  LIPASE: 8.67 u/L
  PHOSPHORUS: 12.63 mg/dL
  POTASSIUM: 5.77 MEQ/L
  SODIUM: 144.43 MEQ/L
  TOTAL BILIRUBIN: 0.2 mg/dL
  TOTAL PROTEIN: 5.73 G/DL
  URIC ACID: 1.87 mg/dL

Source: ChEMBL document CHEMBL3885881, “DrugMatrix”
